Data published in patent US8513227B2, “Inhibition of inflammatory cytokine production with tanshinones” (The Feinstein Institute for Medical Research, priority 2006, dated 2013).
Read-outs that look alike come from different tables or passages of the source.

Tests used:
HMGB1 [1] = assay: LPS-induced HMGB1 release in RAW 264.7 macrophage cultures (western blot); type: cell-based, murine; settings: for IC50: Mus musculus, read-out: estimated IC50 for LPS-induced HMGB1 release
Source text: Cell culture. […] Rendon-Mitchell et al. 2003). Murine macrophages were pre-cultured in RPMI 1640 medium (Gibco BRL, Grand Island, N.Y.) supplemented with 10% fetal bovine serum (FBS) and 2 mmol/L glutamine. Human peripheral blood mononuclear cells (HuPBMCs) were isolated from the blood of healthy donors (Long Island Blood Bank, Melville, N.Y.) by density gradient centrifugation through Ficoll (Ficoll-Paque PLUS, Pharmacia, Piscataway, N.J.), and cultured in RPMI 1640 supplemented with 10% heat-inactivated human serum/0.2 mM L-glutamine as previously described (Rendon-Mitchell et al. 2003). LPS stimulation. Adherent macrophages or monocytes were gently washed with, and cultured in, serum-free OPTI-MEM I medium two hours before stimulation with bacterial endotoxin (lipopolysaccharide, LPS, E. coli 0111:B4, Sigma-Aldrich). […] Rendon-Mitchell et al. 2003; Wang et al. 1999). HMGB1 western blotting analysis. The levels of HMGB1 in the culture medium or serum were determined by western blotting analysis as previously described (Chen et al. 2004; Rendon-Mitchell et al. 2003; Wang et al. 1999). The relative band intensity was quantified using NIH image 1.59 software to determine HMGB1 levels with reference to standard curves generated with purified HMGB1.

lethal sepsis = assay: Lethal sepsis induced by cecal ligation and puncture (CLP) in Balb/C mice; type: in vivo; settings: 12 mg/kg, repeated at 24, 48, 72, 96 hours post onset; vehicle 50%; N=14, p>0.05
Experimental: Animal models of endotoxemia and sepsis. This study was approved and performed in accordance with the guidelines for the care and use of laboratory animals at the Feinstein Institute for Medical Research, Manhasset, N.Y. Endotoxemia was induced in Balb/C mice (male, 7-8 weeks) by intraperitoneal injection of bacterial endotoxin (LPS, 15 mg/kg) as previously described (Chen et al. 2005; Wang et al. 1999; Wang et al. 2006). Sepsis was induced in male Balb/C mice (7-8 weeks, 20-25 g) or Sprague-Dawley rats (290-310 g) by cecal ligation and puncture (CLP) as previously described (Wang et al. 2006; Yang et al. 2002b). Herbal components were administered intraperitoneally into mice at indicated doses and time points, and mice were monitored for survival for up to two weeks. In parallel experiments, mice were euthanized to collect blood at 28 h (following two doses of herbal components at −0.5 and +24 h) after endotoxemia, and at 52 h (following two doses of herbal components at +24 and +48 h) after CLP.
TNF ELISA. The levels of TNF in the culture medium or serum were determined using commercial enzyme linked immunosorbent assay (ELISA) kits (Catalog no. MTA00, R & D Systems, Minneapolis, Minn.) with reference to standard curves of purified recombinant TNF at various dilutions as previously described (Chen et al. 2004; Rendon-Mitchell et al. 2003; Wang et al. 2006).
Nitric oxide assay. The levels of nitric oxide in the culture medium were determined indirectly by measuring NO^2− production with a colorimetric assay based on the Griess reaction (Rendon-Mitchell et al. 2003). NO2-concentrations were determined with reference to a standard curve generated with sodium nitrite at various dilutions.
HMGB1 western blotting analysis. The levels of HMGB1 in the culture medium or serum were determined by western blotting analysis as previously described (Chen et al. 2004; Rendon-Mitchell et al. 2003; Wang et al. 1999). The relative band intensity was quantified using NIH image 1.59 software to determine HMGB1 levels with reference to standard curves generated with purified HMGB1.
Tissue histology. At 48 hours after CLP, mice were euthanized in CO2 Chamber, and immediately perfused (transcardially) with phosphate buffer saline and 4% paraformaldehyde. Various tissues were harvested, sectioned, and stained with hematoxylin and eosin for morphology evaluation.

acetylcholinesterase = acetylcholinesterase (Homo sapiens, UniProt P22303); settings: literature; cited from earlier work
phospholipase A2 = settings: Kim et al. 2002; cited from earlier work
nitric oxide = settings: Wang et al. 2006; cited from earlier work
HMGB1 [2] = settings: Wang et al. 2006; cited from earlier work
TNF = assay: LPS-mediated TNF secretion in RAW 264.7 macrophages (ELISA); type: cell-based, murine; settings: concentrations up to 10 μM, FIG. 5C
Experimental: Cell culture. Murine macrophage-like RAW 264.7 cells were obtained from the American Type Culture Collection (ATCC, Rockville, Md.), and primary peritoneal macrophages were isolated from Balb/C mice (male, 7-8 weeks, 20-25 grams) at 2-3 days after intraperitoneal injection of 2 ml thioglycollate broth (4%) as previously described (Chen et al. 2004; Rendon-Mitchell et al. 2003). Murine macrophages were pre-cultured in RPMI 1640 medium (Gibco BRL, Grand Island, N.Y.) supplemented with 10% fetal bovine serum (FBS) and 2 mmol/L glutamine. Human peripheral blood mononuclear cells (HuPBMCs) were isolated from the blood of healthy donors (Long Island Blood Bank, Melville, N.Y.) by density gradient centrifugation through Ficoll (Ficoll-Paque PLUS, Pharmacia, Piscataway, N.J.), and cultured in RPMI 1640 supplemented with 10% heat-inactivated human serum/0.2 mM L-glutamine as previously described (Rendon-Mitchell et al. 2003). LPS stimulation. […] The levels of TNF in the culture medium or serum were determined using commercial enzyme linked immunosorbent assay (ELISA) kits (Catalog no. MTA00, R & D Systems, Minneapolis, Minn.) with reference to standard curves of purified recombinant TNF at various dilutions as previously described (Chen et al. 2004; Rendon-Mitchell et al. 2003; Wang et al. 2006).

[3] = RAW264.7, RAW 264.7 cells, 16 h after LPS, western blot, estimated
[4] = superpharmacological concentrations (1-25 μM), data not shown

acetylcholinesterase, sequence (P22303 32-614, species assumed): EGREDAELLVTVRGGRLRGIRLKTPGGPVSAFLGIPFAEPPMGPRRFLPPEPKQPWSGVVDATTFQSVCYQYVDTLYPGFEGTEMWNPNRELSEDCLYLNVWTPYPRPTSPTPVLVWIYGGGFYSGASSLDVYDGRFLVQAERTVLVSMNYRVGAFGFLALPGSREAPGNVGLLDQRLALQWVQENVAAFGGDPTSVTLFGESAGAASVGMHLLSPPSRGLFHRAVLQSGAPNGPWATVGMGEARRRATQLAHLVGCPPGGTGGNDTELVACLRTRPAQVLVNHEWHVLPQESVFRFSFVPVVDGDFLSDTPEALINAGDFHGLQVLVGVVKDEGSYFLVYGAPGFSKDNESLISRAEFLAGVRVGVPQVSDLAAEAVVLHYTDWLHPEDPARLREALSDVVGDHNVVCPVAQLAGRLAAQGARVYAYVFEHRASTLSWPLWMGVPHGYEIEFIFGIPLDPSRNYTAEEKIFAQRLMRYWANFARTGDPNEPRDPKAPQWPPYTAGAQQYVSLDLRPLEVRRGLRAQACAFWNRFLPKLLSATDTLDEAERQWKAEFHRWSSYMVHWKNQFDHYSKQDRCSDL

## Cc1coc2c1C(=O)C(=O)c1c-2ccc2c1CCCC2(C)C [tanshinone IIA, 1,6,6-Trimethyl-6,7,8,9-tetrahydro-phenanthro[1,2-b]furan-10,11-dione]
HMGB1 [1]; [3]
  IC50: < 25 µM
Lethal sepsis
  survival rate, lethal sepsis: 61%

## COc1ccc2c(c1)c(CC(=O)O)c(C)n2C(=O)c1ccc(Cl)cc1 [indomethacin]
HMGB1 [1]; [4]
  effect on LPS-induced HMGB1 release: None of the tested cyclooxygenase inhibitors (e.g., aspirin, ibuprofen, and indomethacin) significantly affected

## CC(C)Cc1ccc(C(C)C(=O)O)cc1 (centres unmarked) [ibuprofen]
HMGB1 [1]; [4]
  effect on LPS-induced HMGB1 release: None of the tested cyclooxygenase inhibitors (e.g., aspirin, ibuprofen, and indomethacin) significantly affected

## CC1COC2=C1C(=O)C(=O)c1c2ccc2c1CCCC2(C)C (centres unmarked) [cryptotanshinone, 1,6,6-Trimethyl-1,2,6,7,8,9-hexahydro-phenanthro[1,2-b]furan-10,11-dione]
HMGB1 [1]; RAW264.7, 16 h
  IC50: < 25 µM
acetylcholinesterase
  inhibition of acetylcholinesterase: can inhibit

## CC(=O)Oc1ccccc1C(=O)O [aspirin]
HMGB1 [1]; [4]
  effect on LPS-induced HMGB1 release: None of the tested cyclooxygenase inhibitors (e.g., aspirin, ibuprofen, and indomethacin) significantly affected

## Cc1coc2c1C(=O)C(=O)c1c-2ccc2c(C)cccc12 [tanshinone I]
HMGB1 [1]; [3]
  IC50: < 25 µM
Lethal sepsis
  survival rate, lethal sepsis: 57%
Phospholipase A2
  inhibition of phospholipase A2: can inhibit

## COc1cc(/C=C/C(=O)O)ccc1O [ferulic acid]
Nitric oxide
  effect on LPS-induced nitric oxide production: effectively attenuated
HMGB1 [2]
  effect on LPS-induced HMGB1 release: failed to affect

## C[C@]12CCC(=O)C=C1CC[C@@H]1[C@@H]2C(=O)C[C@@]2(C)[C@H]1CC[C@]2(O)C(=O)CO [cortisone]
HMGB1 [1]; concentrations up to 10 μM, FIG. 5B
  effect on LPS-induced HMGB1 release: failed to reduce
TNF
  effect on LPS-mediated TNF secretion: effectively attenuated
